Assays:
Assay type in all cases: cell-based, human
[1] = test system: OLIG2-GFP knock-in hESC reporter line; test: OLIG2-GFP expression by flow cytometry during differentiation of hESC reporter line; details: RA 100 nM from beginning of induction, SHH 100 ng/ml from day 8, or SAG replacing SHH, added to RA
Method: RA at a concentration of 100 nM from day 0 results in the highest yield of GFP^+ cells. […] Negative: human embryonic stem cell (hESC) line RUES1. […] Error bars are SEM (N=3). […] Only GFP^+ cells form spheres, providing enrichment to the GFP^+ population.
An OLIG2-GFP knock-in hESC reporter line was used to track OLIG2^+ progenitors by live fluorescent imaging. First, PAX6^+ cells were induced using dual inhibition of SMAD signaling in adherent cultures. Next, to mimic the embryonic spinal cord environment, different concentrations of RA and/or SHH were applied at various times and quantified OLIG2-GFP expression through flow cytometry (FIG. 2A).
At day 12, cells were detached and placed into low-attachment plates to promote their aggregation into spheres. The minimum number of cells required to form a sphere was at least 100 cells, and we noted that the majority of cells in the spheres were GFP^+. […]
(§1) Cells were enzymatically harvested by Accutase™ treatment for 25 minutes at 37° C. to obtain a single cell suspension. Cells were then re-suspended in 100 μl of their respective medium containing the appropriate amount of either primary antibody or fluorescence-conjugated antibodies and were incubated on ice for 30 minutes shielded from light. […] Flow cytometry data were analyzed using BD FACSDiva™ software.

[2] = test system: O4^+ cells; test: FACS analysis for O4+ cells at day 75 of differentiation; details: RA only vs RA and SAG in the first 12 days of differentiation
Method: Endogenous SHH levels are higher in the samples that were not exposed to SHH/SAG. Error bars are SEM (N=3). […] Negative Control: APC-conjugated secondary antibody only. […] A substantial population of GFP^+ cells is present only under the dual inhibition of SMAD proteins, indicating a synergistic effect between RA and the dual inhibition of SMAD. DSi: Dual SMAD inhibition; SB: SB431542; LDN: […].
Spheres were plated on pO/L plates, as described above, in PDGF Medium at day 30, changing 2/3 of the PDGF Medium every other day until day 75 of differentiation. The appearance of O4^+ cells was assessed by live O4 staining from day 55 onwards (FIG. 6). At day 75, O4+ OPCs could be isolated by FACS (FIG. 7I). Alternatively, for terminal oligodendrocyte differentiation (FIG. 7G, 7H), cells were cultured in Glial Medium from day 75, changing 2/3 of the medium every 3 days for two weeks.
as §1

[3] = test system: CD49f^+ astrocytes; test: Intracellular Ca2+ imaging of hiPSC-astrocytes after ATP application; details: 100 μM ATP, 60s application
Source text: See also FIG. 32. […] Bar graphs show the maximum number of evoked spikes per 1 second stimulus (n=8/18), the maximum firing frequency in hertz (Hz) (n=5/15), the amplitude adaptation ratio between first and last action potential (n=5/15), the maximum action potential height (mV) (n=8/17), and the frequency of spontaneous excitatory post-synaptic currents (Hz) (n=5/9) in hiPSC-neurons at day 50 when cultured alone vs. with astrocytes during days 33-50. Dots correspond to 3 different lines. Each dot represents an independent cell. n=neurons alone/neurons co-cultured with astrocytes. Error bars show mean±standard deviation. p-values were calculated using a two-tailed, unpaired t-test. […] Scale bar, 50 μm. […] Error bars show mean±standard deviation (n=3 technical replicates). p-values were calculated using a two-tailed, unpaired t-test. […] Error bars show mean±standard deviation (n=4 technical replicates). p-values were calculated using a one-way ANOVA with Dunnett's correction for multiple comparisons. […] Error bars show mean±standard deviation. p-values were calculated using a one-way ANOVA with Dunnett's correction for multiple comparisons.
CD49f^+ astrocytes from three iPSC lines were cultured on glass coverslips coated with 0.1 mg/ml poly-L-ornithine followed by 10 μg/ml laminin. […] Fluorescence was recorded at 2 Hz by a cooled CCD camera (Hamamatsu™ Orca R^2). […]

CNC1CCC(N(Cc2cccc(-c3ccncc3)c2)C(=O)c2sc3ccccc3c2Cl)CC1 (stereo not shown) [SAG]
OLIG2^+ progenitors [1]: 70.1%
decrease in the O4^+ population in cells not provided with SAG [2]: 56%

CC1=C(/C=C/C(C)=C/C=C/C(C)=C/C(=O)O)C(C)(C)CCC1 [RA, all trans retinoic acid]
OLIG2^+ progenitors [1]: 40.6%

Nc1ncnc2c1ncn2[C@@H]1O[C@H](COP(=O)(O)OP(=O)(O)OP(=O)(O)O)[C@@H](O)[C@H]1O [ATP]
[Ca^2+]i response to extracellular ATP [3]: robustly responded
